Test results reported in patent US11999697B2, “Methods and compositions for inhibition of dihydroorotate dehydrogenase” (OHIO STATE INNOVATION FOUNDATION, priority 2018, dated 2024).

Tested on: primary human AML cells
Assay: CyTOF analysis of neutrophil differentiation
Format: cell-based
Settings: 0.5 μM, 7 days, cytokine supplemented media
Procedure: CyTOF analysis: primary human AML cells were treated with vehicle (DMSO) or Cpd3 (0.5 μM) in the presence of cytokine supplemented media for 7 days. Cells were then incubated with 5-Iodo-2′-deoxyuridine for 10 minutes at 37° C. and fixed with Smart Tube proteomic stabilizer. 1-2×10^6 cells were washed twice with cell staining media (CSM; 0.5% BSA, 0.02% sodium azide in PBS), permeablized with cold, 0.01% saponin in PBS, barcoded using the Cell-ID 20-Plex Pd Barcoding Kit (Fluidigm), incubated for 30 minutes at room temperature, washed again 3× with CSM. Cells were then incubated with Fc blocking reagent (10 minutes at room temperature; RT) after which a cocktail of extracellular antibodies (Table 14 below) were added (50 minutes at RT, with shaking). Cells were washed with CSM, fixed for 15 minutes (10% CSM, 1.5% PFA, in PBS), and washed with CSM. Membrane permeablization was performed with ice cold methanol incubated for 20 minutes at −20° C., followed by washing 1× with PBS and 2× with CSM, and incubation with the intracellular antibody cocktail (Table 10) (50 minutes at RT, with shaking). Cells were then rinsed 2× in CSM, 1× in PBS, and incubated in PBS containing 1.5% PFA and 125 nM iridium intercalator (pentamethylcyclopentadienyl-Ir(III)-dipyridophenazine) (Fluidigm) at 4° C. […]

Q: CCOc1ccc(-c2ccc(-c3cc(C(=O)O)c4cc(F)ccc4n3)cc2)cc1 [Cpd3, 2-(4′-ethoxy-[1,1′-biphenyl]-4-yl)-6-fluoroquinoline-4-carboxylic acid] was tested. Which “induction of neutrophil differentiation” value did it give?
A: Its value is “significant induction of neutrophil differentiation”.
